Results published in paper PMC5218480 (PLoS ONE, 2017).

Test system: MV-4-11 cells
Test: Gene expression microarray analysis (Affymetrix PrimeView) and GSEA
Type: cell-based, human
Settings: ProbeSet 11733176_x_at; LIST B

Nc1ccc(-c2cccs2)cc1NC(=O)c1ccc2c(c1)cc(C1CC1)n2CCN1CCOCC1 [ACY-1035]
RFU, ZNF507: 24.05 RFU
